Results from patent publication US20050129621A1, “Aerosol formulations for pulmonary administration of medicaments to produce a systemic effect” (Chiesi Farmaceutici S.P.A., priority 2002, published 2005).
Like-named read-outs stand apart in the source and are kept apart here.

Columns and labels:
[1] = Solubility studies in HFA pMDI formulations (visual assessment for crystal growth)
Description: The assembly of the pMDI cans was carried out using hand operated crimping and filling equipment. Formulations were prepared by accurately weighing the required quantity of drug into the can or vial. The appropriate volume of ethanol and the other co-solvent if required in the formulation, was then added. The valve was crimped onto the vial/can and the assembled vial/can was ultra-sonicated for approximately 10 minutes. The HFA propellant was filled through the valve and the pMDI was ultra-sonicated for a further 10 minutes. […] Final compositions were calculated as percentage w/v for the active ingredient and as percentage w/w for the co-solvents.
All solubility investigations were conducted in plastic coated glass pMDI vials fitted with continuous spray valves. Once produced the medicament-HFA solution pMDIs were stored in refrigerator at 4° C. (±0.1° C.). The pMDI vials were removed periodically and the vials assessed visually with the aid of a polarized light unit for crystal growth.

[2] = Stability study of pMDI formulations in coated aluminum cans, HPLC; settings: 25° C., six months
Description: The recovery of diisobutyryl apomorphine was determined by HPLC.
The leuprolide acetate content was determined by HPLC.

[3] = Cascade impaction studies (Andersen Cascade Impactor), aerosol delivery characteristics; assay type: physicochemical
Description: All impaction studies were conducted with formulations contained in cut edge anodised aluminium cans fitted with 50 μl or 100 μl valves. The studies were carried out using an Andersen Cascade Impactor (ACI) fitted with a USP XXII metal throat entry port.
The HFA solution formulations were discharged into the ACI through actuators having an orifice diameter from 0.14 to 0.45 mm. Deposition of the drug on each ACI plate was determined by high pressure liquid chromatography (HPLC).
MMAD values and corresponding geometric standard deviation (GSD) were calculated from plots of the cumulative percentage undersize of drug collected on each ACI plate (probit scale), against the upper cut off diameter for each respective ACI plate (log10 scale).
The following parameters were determined: the metered dose, which is the sum of the dose delivered through the Andersen apparatus plus the active ingredient residue deposited on the device actuator; the cumulative amount of active particles deposited on the various ACI stages; the amount on the actuator; the amount in the adaptor and in the throat (adp/throat); the fme particle dose or respirable dose (FPD) which is the amount of particles deposited on stages 3 to filter of the ACI and corresponds to the amount of particles of size less than 4.7 μm; the fine particle fraction or respirable fraction which is the ratio between the respirable dose and the dose delivered ex-actuator.
The cans were provided with actuators with an orifice diameter of 0.22 mm.
Two ACI deposition determinations were performed with each formulation. Twenty shots were discharged into the ACI.
The cans were provided with actuators with an orifice diameter of 0.14 mm.
Two ACI deposition determinations were performed with the formulation. Ten shots were discharged into the ACI.

[4] = 0.5% and 1% w/v in HFA 134a, 5% w/w ethanol, 0.1% w/w glycerol, actuator orifice 0.22 mm
[5] = 0.04% w/v (40 μg/100 μl) in HFA 134a, 15% w/w ethanol, 2% w/w water, actuator orifice 0.14 mm
[6] = 0.08% w/v (80 μg/100 μl) in HFA 134a, 18% w/w ethanol, 3% w/w water, actuator orifice 0.14 mm

Compound	concentration at which formulations are soluble ([1]; in HFA 134a or HFA 227, various percentages of ethanol, stored at 4° C.)	degradation ([2]; formulation of Example 1, coated aluminum cans upright and inverted)	difference between cans stored upright and inverted ([2]; formulation of Example 1, coated aluminum cans)	MMAD [3, 4]	amount of active particles of sizes from 0.43 to 3.3 μm [3, 4]	fine particle fraction (FPF) [3, 4]	change of solubility when water was added [1]	concentration at which formulations are soluble [1]	MMAD [3, 5]	amount of active particles of sizes from 0.43 to 3.3 μm [3, 5]	fine particle fraction (FPF) [3, 5]	MMAD [3, 6]	amount of active particles of sizes from 0.43 to 3.3 μm [3, 6]	fine particle fraction (FPF) [3, 6]
CC(C)C(=O)Oc1ccc2c(c1OC(=O)C(C)C)-c1cccc3c1[C@@H](C2)N(C)CC3 [diisobutyryl apomorphine]	up to 1 % w/v	minimal degradation	no significant difference	about 2.0 μm	≥ 60%	70-75%	–	–	–	–	–	–	–	–
CCNC(=O)[C@@H]1CCCN1C(=O)[C@H](CCCNC(=N)N)NC(=O)[C@H](CC(C)C)NC(=O)[C@@H](CC(C)C)NC(=O)[C@H](Cc1ccc(O)cc1)NC(=O)[C@H](CO)NC(=O)[C@H](Cc1c[nH]c2ccccc12)NC(=O)[C@H](Cc1c[nH]cn1)NC(=O)[C@@H]1CCC(=O)N1 [leuprolide acetate]	–	–	–	–	–	–	significant increase	up to 0.26 % w/v	about 1.0 μm	≥ 61%	at least 72%	about 1.3 μm	≥ 52%	at least 59%
